From US8163909B2, “Substituted hydroxyethyl amine compounds as beta-secretase modulators and methods of use” (Amgen Inc., priority 2007, dated 2012)
pIC50: −log10 of the molar value. Like-named read-outs stand apart in the source and are kept apart here.

Columns and labels:
[1] = target: Beta Secretase enzyme (BACE) (Homo sapiens, UniProt P56817); experiment: In vitro enzymatic BACE FRET (fluorescence resonance energy transfer) assay; format: biochemical;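 also: fluorescence read after 1 h with 50 nM quenched peptide substrate spanning the BACE cleavage site, in pH 4.2 acetate buffer containing 10% DMSO and nonionic detergent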
Beta Secretase enzyme (BACE), sequence (P56817 46-501): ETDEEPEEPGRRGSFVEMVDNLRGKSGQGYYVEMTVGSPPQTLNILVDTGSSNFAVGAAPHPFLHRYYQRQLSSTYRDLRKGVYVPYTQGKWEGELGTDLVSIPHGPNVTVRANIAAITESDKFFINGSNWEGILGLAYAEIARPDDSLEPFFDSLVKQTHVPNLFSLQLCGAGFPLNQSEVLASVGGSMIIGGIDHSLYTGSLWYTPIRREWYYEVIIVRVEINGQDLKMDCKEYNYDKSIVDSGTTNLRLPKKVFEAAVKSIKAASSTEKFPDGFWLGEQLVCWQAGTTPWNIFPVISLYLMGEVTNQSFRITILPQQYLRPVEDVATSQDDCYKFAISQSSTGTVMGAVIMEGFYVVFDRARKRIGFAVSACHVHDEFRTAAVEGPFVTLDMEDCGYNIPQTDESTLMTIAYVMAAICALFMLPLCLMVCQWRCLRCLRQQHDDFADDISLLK

[2] = tested on: Aβ40 in conditioned medium of cells stably expressing Amyloid Precursor Protein (APP); experiment: In vitro BACE cell-based assay (Aβ40 in conditioned medium, sandwich ELISA);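 also: compounds added as a dilution series, secreted peptide quantified by europium time-resolved fluorescence readout, potency fitted from percent of control versus compound concentration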
[3] = BACE enzyme assay, read-out: BACE1 FRET assay (IC50)
[4] = HEK cells, cell-based assay, read-out: HEK cell assay (IC50)
[5] = Table 1, read-out: BACE1 FRET assay
[6] = Homo sapiens, HEK293, Table 1, HEK cells, read-out: HEK cell assay
[7] = BACE enzyme FRET assay, read-out: BACE1 FRET assay (IC50)
[8] = Homo sapiens, HEK293, HEK cells, cell-based assay, read-out: HEK cell assay (IC50)

Row | Compound | pIC50 [1, 3] | pIC50 [2, 8] | further results
1 | COC(C)C(=O)NC(Cc1cc(F)cc(F)c1)C(O)CNC1CC2(CCC2)Oc2ncc(CC(C)(C)C)cc21 [compound 103, (S)—N-((2S,3R)-1-(3,5-difluorophenyl)-3-hydroxy-4-((S)-6-neopentyl-3,4-dihydrospiro[cyclobutane-1,2H-pyrano[2,3-b]pyridin-4-ylamino)butan-2-yl)-2-methoxypropanamide] | 8.00 |  | pIC50 [2, 4]: 7.57
2 | COCC(=O)N[C@@H](Cc1cccc(F)c1)[C@H](O)CN[C@H]1CC2(CCC2)Oc2ncc(C[C@@H](C)C(F)(F)F)cc21 [compound 326] |  |  | pIC50 [1, 5]: 8.11; pIC50 [2, 6]: 7.57
3 | COCC(=O)N[C@@H](Cc1ccc(Cl)cc1)[C@H](O)CN[C@H]1CC2(CCC2)Oc2ncc(CC(C)(C)C)cc21 [compound 212] |  | 7.50 | pIC50 [1, 7]: 8.67
4 | CO[C@H](C)C(=O)N[C@@H](Cc1cccc(C#N)c1)[C@H](O)CN[C@H]1CC2(CCC2)Oc2ncc(CC(F)(F)F)cc21 [compound 345] |  |  | pIC50 [1, 5]: 7.58; pIC50 [2, 6]: 7.22
5 | COCC(=O)N[C@@H](Cc1ccc(F)cc1)[C@H](O)CN[C@H]1CC2(CCC2)Oc2ncc(CC(C)(C)C(F)F)cc21 [compound 160] | 8.05 | 7.41 | 
6 | CNc1nc(CC(C)(C)C)cc2c1OC1(CCC1)C[C@@H]2NC[C@@H](O)[C@H](Cc1ccc2c(c1)OCO2)NC(C)=O [compound 126] | 7.32 | 8.04 | 
7 | COCC(=O)N[C@@H](Cc1ccc2c(c1)OCO2)[C@H](O)CN[C@H]1CC2(CCC2)Oc2ncc(CC(C)(C)C(F)(F)F)cc21 [compound 362] |  |  | pIC50 [1, 5]: 7.22; pIC50 [2, 6]: 6.91
8 | COCC(=O)N[C@@H](Cc1ccc(F)cc1)[C@H](O)CNC1CC2(CC(F)(F)C2)Oc2ncc(CC(C)(C)C)cc21 (stereo partly shown) [compound 53] | 7.96 | 7.19 | 
9 | CC(C)(C)Cc1cnc2c(c1)[C@@H](NC[C@@H](O)[C@H](Cc1cc(F)cc(F)c1)NC(=O)C(Cl)Cl)CC1(CCC1)O2 [compound 95] | 9.37 | 7.78 | 
10 | CC(O)C(=O)N[C@@H](Cc1ccc(F)cc1)[C@H](O)CN[C@H]1CC2(CCC2)Oc2ncc(CC(C)(C)C)cc21 (stereo partly shown) [compound 156] | 7.56 | 7.34 | 
11 | CC(=O)N[C@@H](Cc1ccc2c(c1)OCO2)[C@H](O)CN[C@H]1CC2(CCC2)Oc2c1cc(CC(C)(C)C)nc2Cl [compound 124] | 7.54 | 6.94 | 
12 | CC(=O)N[C@@H](Cc1cc(F)cc(F)c1)[C@H](O)CN[C@H]1CC(C)(C)N2CCOc3cc(CC(C)(C)C)cc1c32 [compound 725] |  |  | pIC50 ([1]; BACE enzyme assay IC50, read-out: BACE1 FRET assay): 7.23; pIC50 ([2]; Homo sapiens, HEK293, HEK cell-based assay IC50, read-out: HEK cell assay): 6.75
13 | CO[C@H](C)C(=O)N[C@@H](Cc1cccc(F)c1)[C@H](O)CN[C@H]1CC2(CCC2)Oc2cnc(CC(C)(C)F)cc21 [compound 253] |  | 7.13 | pIC50 [1, 7]: 7.44
14 | CO[C@H](C)C(=O)N[C@@H](Cc1ccc2c(c1)OCO2)[C@H](O)CN[C@H]1CC2(CCC2)Oc2nc(F)c(CC(C)C)cc21 [compound 336] |  |  | pIC50 [1, 5]: 6.87; pIC50 [2, 6]: 6.39
15 | COCC(=O)N[C@@H](Cc1ccnc(C(F)(F)F)c1)[C@H](O)CN[C@H]1CC2(CCC2)Oc2ncc(CC(C)(C)C)cc21 [compound 163] | 7.57 | 7.45 | 
16 | COCC(=O)NC(Cc1ccc2c(c1)OCO2)C(O)CNC1CC2(CC(O)C2)Oc2cnccc21 [compound 242, N-((1S,2R)-1-(1,3-benzodioxol-5-ylmethyl)-2-hydroxy-3-(((1s,3S,4′S)-3-hydroxy-3′,4′-dihydrospiro[cyclobutane-1,2′-pyrano[2,3-c]pyridin]-4′-yl)amino)propyl)-2-(methyloxy)acetamide] |  | 5.93 | pIC50 [1, 7]: 4.62
17 | CO[C@@H](C)C(=O)N[C@@H](Cc1cc(F)c2c(c1)OCO2)[C@H](O)CN[C@H]1CC2(CCC2)Oc2ncc(CC(C)(C)C)cc21 [compound 304] |  | 7.05 | pIC50 [1, 7]: 7.42
18 | CNc1nc(CC(C)(C)C)cc2c1OC1(CCC1)C[C@@H]2NC[C@@H](O)[C@H](Cc1ccccc1)NC(=O)COC [compound 112] | 7.52 | 8.05 | 
19 | CNc1nc(CC(C)(C)C)cc2c1OC1(CCC1)C[C@@H]2N(C)C[C@@H](O)[C@H](Cc1ccc(F)cc1)NC(=O)[C@@H](C)OC [compound 138] | 6.75 | 6.79 | 
20 | CC(=O)N[C@@H](Cc1cc(F)cc(F)c1)[C@H](O)CN[C@H]1CC2(CCC2)Oc2c(F)cc(CC(C)(C)C)cc21 [compound 224] |  | 7.71 | pIC50 [1, 7]: 8.33
21 | COC(=O)C1CC2(C1)CC(NCC(O)C(Cc1ccc(F)cc1)NC(C)=O)c1cc(CC(C)(C)C)cnc1O2 [compound 258, methyl (1r,3S,4′S)-4′-(((2R,3S)-3-(acetylamino)-4-(4-fluorophenyl)-2-hydroxybutyl)amino)-6′-(2,2-dimethylpropyl)-3′,4′-dihydrospiro[cyclobutane-1,2′-pyrano[2,3-b]pyridine]-3-carboxylate] |  |  | pIC50 [1, 7]: 7.41; pIC50 [2, 4]: 7.03

Row | Compound | pIC50 [1, 3] | pIC50 [2, 8] | further results
22 | CO[C@H](C)C(=O)N[C@@H](Cc1ccc(F)cc1)[C@H](O)CN[C@H]1CC2(CCC2)Oc2ncc(CC(C)(C)C(F)(F)F)cc21 [compound 75] | 8.18 | 7.70 | 
23 | CC(=O)N[C@@H](Cc1ccc2c(c1)OCO2)[C@H](O)CN[C@H]1CC2(CCC2)Oc2ncc(CC3(C(F)(F)F)CC3)cc21 [compound 312] |  | 6.71 | pIC50 [1, 7]: 7.21
24 | CC(=O)N[C@@H](Cc1ccc(F)cc1)[C@H](O)CN[C@H]1CC2(CCC2)Oc2c1cc(CC(C)(C)C)nc2NCC(F)(F)F [compound 144] | 7.03 | 6.20 | 
25 | CNc1nc(CC(C)(C)C)cc2c1OC1(CCC1)C[C@@H]2NC[C@@H](O)[C@H](Cc1ccc(F)cc1)NC(=O)[C@@H](C)OC [compound 137] | 7.09 | 7.24 | 
26 | CC(=O)N[C@@H](Cc1ccc2c(c1)OCO2)[C@H](O)CN[C@H]1CC2(CCC2)Oc2c(F)cc(CC(C)(C)C)cc21 [compound 170] | 7.90 | 7.27 | 
27 | CC(C)(C)[C@@H](F)c1cnc2c(c1)[C@@H](NC[C@@H](O)[C@H](Cc1ccc3c(c1)OCO3)NC(=O)CF)CC1(CCC1)O2 [compound 185] | 7.73 | 7.58 | 
28 | CC(=O)N[C@@H](Cc1cccc(F)c1C)[C@H](O)CN[C@H]1CC2(CCC2)Oc2ncc(CC(C)(C)C)cc21 [compound 109] | 7.14 | 6.50 | 
29 | COC(C)C(=O)NC(Cc1ccc2c(c1)OCO2)C(O)CNC1CC2(CC(C)C2)Oc2ncc(CC(C)C)cc21 [compound 134, (2R)—N-((1S,2R)-1-(1,3-benzodioxol-5-ylmethyl)-2-hydroxy-3-(((1s,3R,4′S)-3-methyl-6′-(2-methylpropyl)-3′,4′-dihydrospiro[cyclobutane-1,2′-pyrano[2,3-b]pyridin]-4′-yl)amino)propyl)-2-(methyloxy)propanamide] | 7.57 | 6.72 | 
30 | COCC(=O)N[C@@H](Cc1ccccc1)[C@H](O)CN[C@H]1CC2(CCC2)Oc2ncc([C@H](F)C(C)(C)C)cc21 [compound 356] |  |  | pIC50 [1, 5]: 8.50; pIC50 [2, 6]: 8.19
31 | CC(C)(C)Cc1cnc2c(c1)[C@@H](NC[C@@H](O)[C@H](Cc1ccc3c(c1)OCO3)NC(=O)OCc1cncs1)CC1(CCC1)O2 [compound 101] | 6.80 |  | pIC50 [2, 4]: 5.73
32 | COCC(=O)NC(Cc1ccc2c(c1)OCO2)C(O)CNC1CC2(CC(F)C2)Oc2ncc(CC(C)(C)C)cc21 [compound 240, N-((1S,2R)-1-(1,3-benzodioxol-5-ylmethyl)-3-(((1s,3S,4′S)-6′-(2,2-dimethylpropyl)-3-fluoro-3′,4′-dihydrospiro[cyclobutane-1,2′-pyrano[2,3-b]pyridin]-4′-yl)amino)-2-hydroxypropyl)-2-(methyloxy)acetamide] |  | 6.97 | pIC50 [1, 7]: 7.06
33 | C#CCCC(=O)N[C@@H](Cc1cccc(F)c1)[C@H](O)CN[C@H]1CC2(CCC2)Oc2ncc(CC(C)(C)C)cc21 [compound 859] |  |  | IC50 ([1]; BACE enzyme assay, IC50's in uM, read-out: BACE1 FRET assay): 0.004 µM; IC50 ([2]; Homo sapiens, HEK293, cell-based assay, HEK cells, IC50's in uM, read-out: HEK cell assay): 0.027 µM
34 | CC(=O)N[C@@H](Cc1ccc(F)cc1)[C@H](O)CN[C@H]1C[C@]2(CC[C@H]2O)Oc2ncc(CC(C)(C)C)cc21 [compound 118] | 8.04 | 7.55 | 
35 | N-((1S,2R)-1-((3-cyanophenyl)methyl)-3-(((4′S)-6′-(2,2-dimethylpropyl)-3′,4′-dihydrospiro[cyclobutane-1,2′-pyrano[2,3-b]pyridin]-4′-yl)amino)-2-hydroxypropyl)-1-cyclobutyl-4,4-dimethyl-5-oxo-3-pyrrolidinecarboxamide [compound 60] | 7.68 |  | pIC50 [2, 4]: 7.20
36 | CC(=O)N[C@@H](Cc1ccc(F)cc1)[C@H](O)CN[C@H]1CC2(CCC2)Cc2ncc(CC(C)(C)C)cc21 [compound 164] | 7.21 | 7.69 | 
37 | COCC(=O)N[C@@H](Cc1cccc(F)c1)[C@H](O)CN[C@H]1CC2(CCC2)Oc2ncc(CC3(C(F)(F)F)CC3)cc21 [compound 327] |  |  | pIC50 [1, 5]: 8.01; pIC50 [2, 6]: 7.22
38 | CCNc1cc(Br)cc2c1OC1(CCC1)C[C@@H]2NC[C@@H](O)[C@H](Cc1cccc(F)c1)NC(=O)COC [compound 270] |  | 6.80 | pIC50 [1, 7]: 6.35
39 | CO[C@H](C)C(=O)N[C@@H](Cc1ccc(F)cc1)[C@H](O)CN[C@H]1CC2(CCC2)Oc2ncc([C@H](F)C(C)(C)C)cc21 [compound 186] |  | 7.58 | pIC50 [1, 7]: 8.11
40 | COCC(=O)N[C@@H](Cc1ccc2c(c1)OCCO2)[C@H](O)CN[C@H]1CC2(CCC2)Oc2ncc(CC(C)(C)C)cc21 [compound 206] |  | 7.37 | pIC50 [1, 7]: 7.64
41 | CC(=O)N[C@@H](Cc1ccccc1)[C@H](O)CN[C@H]1CC2(CCC2)Oc2ncc(CC(C)(C)CF)cc21 [compound 180] | 8.63 | 8.15 | 
